Assay results from US11629138B2, “Microbiocidal picolinamide derivatives” (Syngenta Participations AG, priority 2017, dated 2023).

How the values were obtained:
[1] = system: Mycosphaerella arachidis (Cercospora arachidicola); assay: Mycosphaerella arachidis (Cercospora arachidicola) / liquid culture (early leaf spot); format: cell-based; settings: 200 ppm in the formulation, PDB broth, 24° C., photometric, 4-5 days after application, vs untreated control, read-out: disease control (inhibition of growth)
Experimental: (§1) Mycosphaerella arachidis (Cercospora arachidicola)/Liquid Culture (Early Leaf Soot) Conidia of the fungus from cryogenic storage are directly mixed into nutrient broth (PDB potato dextrose broth). After placing a (DMSO) solution of test compound into a microtiter plate (96-well format), the nutrient broth containing the fungal spores is added. The test plates are incubated at 24° C. and the inhibition of growth is determined photometrically 4-5 days after application.

[2] = system: Phaeosphaeria nodorum (Setoria nodorum); assay: Phaeosphaeria nodorum (Septoria nodorum) / wheat / leaf disc preventative (glume blotch); format: in vivo; settings: Parastagonospora nodorum, foliar, 200 ppm in the formulation, wheat leaf segments cv. Kanzler, 5-7 days after application, vs untreated control, read-out: disease control
Experimental: Phaeosphaeria nodorum (Setoria nodorum)/Wheat/Leaf Disc Preventative (Glume Blotch) Wheat leaf segments cv. Kanzler are placed on agar in a multiwell plate (24-well format) and sprayed with the formulated test compound diluted in water. The leaf disks are inoculated with a spore suspension of the fungus 2 days after application. The inoculated test leaf disks are incubated at 20° C. and 75% rh under a light regime of 12 h light/12 h darkness in a climate cabinet and the activity of a compound is assessed as percent disease control compared to untreated when an appropriate level of disease damage appears in untreated check leaf disks (5-7 days after application).

[3] = system: Glomerella lagenarium (Colletotrichum lagenarium); assay: Glomerella lagenarium (Colletotrichum lagenarium) / liquid culture (anthracnose); format: cell-based; settings: Colletotrichum orbiculare; 200 ppm in the formulation; PDB broth, 24° C., photometric, 3 to 4 days after application; vs untreated control; read-out: disease control (inhibition of growth)
Experimental: as §1, with “Glomerella lagenarium (Colletotrichum lagenarium)/Liquid” for “Mycosphaerella arachidis (Cercospora arachidicola)/Liquid”, “(Anthracnose)” for “(Early Leaf Soot)”, “measured” for “determined”, “3 to 4” for “4-5”

[4] = system: Monographella nivalis (Microdochium nivale); assay: Monographella nivalis (Microdochium nivale) / liquid culture (foot rot cereals); format: cell-based; settings: 200 ppm in the formulation, PDB broth, 24° C., photometric, 4-5 days after application, vs untreated control, read-out: disease control (inhibition of growth)
Experimental: as §1, with “Monographella nivalis (Microdochium nivale)/Liquid” for “Mycosphaerella arachidis (Cercospora arachidicola)/Liquid”, “(Foot Rot Cereals)” for “(Early Leaf Soot)”

[5] = system: Puccinia recondita f. so. tritici; assay: Puccinia recondita f. sp. tritici / wheat / leaf disc preventative (brown rust); format: in vivo; settings: foliar, 200 ppm in the formulation, wheat leaf segments cv. Kanzler, 7-9 days after application, vs untreated control, read-out: disease control
Experimental: Puccinia recondita f. so. tritici/Wheat/Leaf Disc Preventative (Brown Rust)
Wheat leaf segments cv. Kanzler are placed on agar in multiwell plates (24-well format) and sprayed with the formulated test compound diluted in water. The leaf disks are inoculated with a spore suspension of the fungus 1 day after application. The inoculated leaf segments are incubated at 19° C. and 75% rh under a light regime of 12 h light/12 h darkness in a climate cabinet and the activity of a compound is assessed as percent disease control compared to untreated when an appropriate level of disease damage appears in untreated check leaf segments (7-9 days after application).

[6] = system: Magnaporthe grisea (Pyricularia oryzae); assay: whole plant or invertebrate; format: in vivo; settings: foliar, read-out: disease control
[7] = system: Mycosphaerella graminicola (Septoria tritici); assay: Mycosphaerella graminicola (Septoria tritici) / liquid culture (Septoria blotch); format: cell-based; settings: Zymoseptoria tritici; 200 ppm in the formulation; PDB broth, 24° C., photometric, 4 to 5 days after application; vs untreated control; read-out: disease control (inhibition of growth)
Experimental: as §1, with “graminicola (Septoria tritici)/Liquid” for “arachidis (Cercospora arachidicola)/Liquid”, “(Septoria Blotch)” for “(Early Leaf Soot)”, “4 to 5” for “4-5”

Pythium ultimum = Pythium ultimum / liquid culture (seedling damping off); format: cell-based; settings: Globisporangium ultimum; 200 ppm in the formulation; PDB broth, 24° C., photometric, 2-3 days after application; vs untreated control; read-out: disease control (inhibition of growth)
Experimental: Pythium ultimum/Liquid Culture (Seedling Damping Off) Mycelia fragments and oospores of a newly grown liquid culture of the fungus are directly mixed into nutrient broth (PDB potato dextrose broth). After placing a (DMSO) solution of test compound into a microtiter plate (96-well format), the nutrient broth containing the fungal mycelia/spore mixture is added. The test plates are incubated at 24° C. and the inhibition of growth is determined photometrically 2-3 days after application.

[8] = system: Botryotinia fuckeliana (Botrytis cinerea); assay: Botryotinia fuckeliana (Botrytis cinerea) liquid culture (gray mould); format: cell-based; settings: 200 ppm in the formulation, Vogels broth, 24° C., photometric, 3-4 days after application, vs untreated control, read-out: disease control (inhibition of growth)
Experimental: as §1, with “Botryotinia fuckeliana (Botrytis cinerea) Liquid” for “Mycosphaerella arachidis (Cercospora arachidicola)/Liquid”, “(Gray Mould)” for “(Early Leaf Soot)”, “(Vogels” for “(PDB potato dextrose”, “3-4” for “4-5”

COc1ccnc(C(=O)N[C@@H](C)C(=O)OC(C)C(C)n2ccc3c(F)ccc(Br)c32)c1O (stereo partly drawn) [I.bd.001, [2-(7-bromo-4-fluoro-indol-1-yl)-1-methyl-propyl] (2S)-2-[(3-hydroxy-4-methoxy-pyridine-2-carbonyl)amino]propanoate]
≥ 80%: inhibition at 200 ppm [1] | pest or weed control at 200 ppm [2] | inhibition at 200 ppm [3] | inhibition at 200 ppm [4] | pest or weed control at 200 ppm [5] | pest or weed control at 200 ppm [6] | inhibition at 200 ppm [7]

COc1ccnc(C(=O)N[C@@H](C)C(=O)OC(C)C(C)n2ccc3c(Cl)ccc(Cl)c32)c1O (stereo partly drawn) [I.bb.001, [2-(4,7-dichloroindol-1-yl)-1-methyl-propyl] (2S)-2-[(3-hydroxy-4-methoxy-pyridine-2-carbonyl)amino] propanoate]
≥ 80%: inhibition at 200 ppm [1] | pest or weed control at 200 ppm [2] | inhibition at 200 ppm [3] | inhibition at 200 ppm [4] | pest or weed control at 200 ppm [5] | pest or weed control at 200 ppm [6] | inhibition at 200 ppm [7]

COc1ccnc(C(=O)N[C@@H](C)C(=O)OC(C)C(C)n2ccc3cc(Cl)ccc32)c1O (stereo partly drawn) [I.y.001, [2-(5-chloroindol-1-yl)-1-methyl-propyl] (2S)-2-[(3-hydroxy-4-methoxy-pyridine-2-carbonyl)amino]propanoate]
≥ 80%: inhibition at 200 ppm [1] | inhibition at 200 ppm (Pythium ultimum) | inhibition at 200 ppm [3] | inhibition at 200 ppm [4] | pest or weed control at 200 ppm [5] | inhibition at 200 ppm [8] | inhibition at 200 ppm [7]

COc1ccnc(C(=O)N[C@@H](C)C(=O)OC(C)C(C)n2ccc3cccc(Br)c32)c1O (stereo partly drawn) [I.ba.001, [2-(7-bromoindol-1-yl)-1-methyl-propyl] (2S)-2-[(3-hydroxy-4-methoxy-pyridine-2-carbonyl)amino]propanoate]
≥ 80%: inhibition at 200 ppm [1] | pest or weed control at 200 ppm [2] | inhibition at 200 ppm [3] | inhibition at 200 ppm [4] | pest or weed control at 200 ppm [5] | pest or weed control at 200 ppm [6] | inhibition at 200 ppm [7]

COc1ccnc(C(=O)N[C@@H](C)C(=O)OC(C)C(C)c2ccc(Cl)s2)c1O (stereo partly drawn) [I.ar.001, [2-(5-chloro-2-thienyl)-1-methyl-propyl] (2S)-2-[(3-hydroxy-4-methoxy-pyridine-2-carbonyl)amino]propanoate]
≥ 80%: inhibition at 200 ppm [1] | inhibition at 200 ppm [3] | inhibition at 200 ppm [4] | pest or weed control at 200 ppm [5] | pest or weed control at 200 ppm [6] | inhibition at 200 ppm [7]

COc1ccnc(C(=O)N[C@@H](C)C(=O)OC(C)C(C)n2ccc3c(F)ccc(Br)c32)c1OC(C)=O (stereo partly drawn) [I.bd.041, [2-(7-bromo-4-fluoro-indol-1-yl)-1-methyl-propyl] (2S)-2-[(3-acetoxy-4-methoxy-pyridine-2-carbonyl)amino]propanoate]
≥ 80%: inhibition at 200 ppm [1] | pest or weed control at 200 ppm [2] | inhibition at 200 ppm [3] | inhibition at 200 ppm [4] | pest or weed control at 200 ppm [5] | pest or weed control at 200 ppm [6] | inhibition at 200 ppm [7]

COc1ccnc(C(=O)N[C@@H](C)C(=O)OC(C)C(C)c2ncc(Cl)cc2Cl)c1OCOC(=O)C(C)C (stereo partly drawn) [I.an.081, [2-[[(1S)-2-[2-(3,5-dichloro-2-pyridyl)-1-methyl-propoxy]-1-methyl-2-oxo-ethyl]carbamoyl]-4-methoxy-3-pyridyl]oxymethyl 2-methylpropanoate]
≥ 80%: inhibition at 200 ppm [1] | pest or weed control at 200 ppm [2] | inhibition at 200 ppm [4] | pest or weed control at 200 ppm [5] | pest or weed control at 200 ppm [6] | inhibition at 200 ppm [7]

COc1ccnc(C(=O)N[C@@H](C)C(=O)OC(C)C(C)c2nc3ccccc3s2)c1O (stereo partly drawn) [I.e.001, [2-(1,3-benzothiazol-2-yl)-1-methyl-propyl] (2S)-2-[(3-hydroxy-4-methoxy-pyridine-2-carbonyl)amino] propanoate]
≥ 80%: inhibition at 200 ppm [1] | inhibition at 200 ppm [3] | inhibition at 200 ppm [4] | pest or weed control at 200 ppm [5] | pest or weed control at 200 ppm [6] | inhibition at 200 ppm [8] | inhibition at 200 ppm [7]

COc1ccnc(C(=O)N[C@@H](C)C(=O)OC(C)C(C)n2ccc3cc(Br)ccc32)c1O (stereo partly drawn) [I.bc.001, [2-(5-bromoindol-1-yl)-1-methyl-propyl] (2S)-2-[(3-hydroxy-4-methoxy-pyridine-2-carbonyl)amino]propanoate]
≥ 80%: inhibition at 200 ppm [1] | inhibition at 200 ppm [3] | inhibition at 200 ppm [4] | pest or weed control at 200 ppm [5] | pest or weed control at 200 ppm [6] | inhibition at 200 ppm [7]

COc1ccnc(C(=O)N[C@@H](C)C(=O)OC(C)C(C)c2ncc(Cl)cc2Cl)c1O (stereo partly drawn) [I.an.001, [2-(3,5-dichloro-2-pyridyl)-1-methyl-propyl] (2S)-2-[(3-hydroxy-4-methoxy-pyridine-2-carbonyl)amino] propanoate]
≥ 80%: inhibition at 200 ppm [1] | pest or weed control at 200 ppm [2] | inhibition at 200 ppm [3] | pest or weed control at 200 ppm [5] | pest or weed control at 200 ppm [6] | inhibition at 200 ppm [7]

COc1ccnc(C(=O)N[C@@H](C)C(=O)OC(C)C(C)n2ccc3c(Br)ccc(F)c32)c1OC(C)=O (stereo partly drawn) [I.ab.041, [2-(4-bromo-7-fluoro-indol-1-yl)-1-methyl-propyl] (2S)-2-[(3-acetoxy-4-methoxy-pyridine-2-carbonyl)amino]propanoate]
≥ 80%: inhibition at 200 ppm [1] | pest or weed control at 200 ppm [2] | inhibition at 200 ppm [3] | pest or weed control at 200 ppm [5] | pest or weed control at 200 ppm [6] | inhibition at 200 ppm [7]

COc1ccnc(C(=O)N[C@@H](C)C(=O)OC(C)C(C)c2sc3ccccc3c2C)c1O (stereo partly drawn) [I.as.001, [1-methyl-2-(3-methylbenzothiophen-2-yl)propyl] (2S)-2-[(3-hydroxy-4-methoxy-pyridine-2-carbonyl)amino]propanoate]
≥ 80%: inhibition at 200 ppm [1] | pest or weed control at 200 ppm [2] | inhibition at 200 ppm [3] | inhibition at 200 ppm [4] | pest or weed control at 200 ppm [5] | pest or weed control at 200 ppm [6] | inhibition at 200 ppm [8] | inhibition at 200 ppm [7]
